In patent publication US20240327417A1, “HETEROCYCLIC COMPOUNDS” (BeiGene Switzerland GmbH, priority 2021, published 2024) one finds IC50 data, which are given here for six compounds.

Assay [1] concerns the target T1, Full length DGKζ (in-house protein M1-V929) (Homo sapiens, UniProt Q13574).
T1 construct: His (N); TEV cleavage site (N); made in house; host or cells: Sf9 insect cells (baculovirus, Bac-to-Bac)
Kind of assay: Biochemical DGK IC50 assay (ADP-Glo, lipid micelle substrate), DGKζ. To be noted: 0.5 nM enzyme, 140 μM ATP, 80 μM DAG, 1 hour preincubation, 1 hour reaction, room temperature, read-out: IC50s for DGKζ. The gist of the method:
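In-house full-length human DGKζ, baculovirus-expressed in Sf9 cells, was assayed with a DAG/PS lipid micelle substrate at room temperature. Buffer was 50 mM HEPES, 10 mM MgCl2, 0.01% BSA, 0.1 mM Na3VO4, 0.005% Tween-20, 0.01 mM CaCl2, with final compound 1.55˜10000 nM or 23.3˜150000 nM.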
(In general: In ADP-Glo the light output rises with the ADP produced.)

The target of assay [2] is T2, Full length DGKα (D21-10BG, SignalChem) (Homo sapiens, UniProt P23743).
T2 construct: Full length DGKα (D21-10BG, SignalChem); purchased SignalChem D21-10BG
T2 sequence (P23743 whole entry): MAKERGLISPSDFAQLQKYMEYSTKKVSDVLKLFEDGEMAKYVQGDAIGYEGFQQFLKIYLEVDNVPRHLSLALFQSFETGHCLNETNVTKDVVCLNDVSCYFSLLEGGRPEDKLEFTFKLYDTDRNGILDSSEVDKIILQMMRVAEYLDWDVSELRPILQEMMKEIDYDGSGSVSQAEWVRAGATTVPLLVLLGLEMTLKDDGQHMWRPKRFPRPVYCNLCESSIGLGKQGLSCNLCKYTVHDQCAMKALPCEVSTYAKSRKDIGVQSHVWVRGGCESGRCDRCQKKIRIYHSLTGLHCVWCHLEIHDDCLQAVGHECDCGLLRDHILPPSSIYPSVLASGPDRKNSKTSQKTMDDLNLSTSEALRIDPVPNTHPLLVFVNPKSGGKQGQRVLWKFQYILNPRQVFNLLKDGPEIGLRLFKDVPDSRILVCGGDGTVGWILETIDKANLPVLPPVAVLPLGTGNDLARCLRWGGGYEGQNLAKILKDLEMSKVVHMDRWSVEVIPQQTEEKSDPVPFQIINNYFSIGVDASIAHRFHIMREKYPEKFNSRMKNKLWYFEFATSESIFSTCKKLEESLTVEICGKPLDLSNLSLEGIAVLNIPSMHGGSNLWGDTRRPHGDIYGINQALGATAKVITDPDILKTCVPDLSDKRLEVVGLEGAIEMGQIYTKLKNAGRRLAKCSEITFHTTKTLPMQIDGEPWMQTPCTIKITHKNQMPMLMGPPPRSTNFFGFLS
Put plainly: Biochemical DGK IC50 assay (ADP-Glo, lipid micelle substrate), DGKα. To be noted: 7.5 nM enzyme, 140 μM ATP, 80 μM DAG, 1 hour preincubation, 1 hour reaction, room temperature, read-out: IC50s for DGKα. Put shortly:
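Full-length enzyme was assayed by ADP-Glo on DAG/PS lipid micelles at room temperature in HEPES/MgCl2/CaCl2 buffer with BSA, Na3VO4 and Tween-20, using a 1 h reaction and luminescence read-out.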

T1 sequence (Q13574 1-929 isoform Q13574-4): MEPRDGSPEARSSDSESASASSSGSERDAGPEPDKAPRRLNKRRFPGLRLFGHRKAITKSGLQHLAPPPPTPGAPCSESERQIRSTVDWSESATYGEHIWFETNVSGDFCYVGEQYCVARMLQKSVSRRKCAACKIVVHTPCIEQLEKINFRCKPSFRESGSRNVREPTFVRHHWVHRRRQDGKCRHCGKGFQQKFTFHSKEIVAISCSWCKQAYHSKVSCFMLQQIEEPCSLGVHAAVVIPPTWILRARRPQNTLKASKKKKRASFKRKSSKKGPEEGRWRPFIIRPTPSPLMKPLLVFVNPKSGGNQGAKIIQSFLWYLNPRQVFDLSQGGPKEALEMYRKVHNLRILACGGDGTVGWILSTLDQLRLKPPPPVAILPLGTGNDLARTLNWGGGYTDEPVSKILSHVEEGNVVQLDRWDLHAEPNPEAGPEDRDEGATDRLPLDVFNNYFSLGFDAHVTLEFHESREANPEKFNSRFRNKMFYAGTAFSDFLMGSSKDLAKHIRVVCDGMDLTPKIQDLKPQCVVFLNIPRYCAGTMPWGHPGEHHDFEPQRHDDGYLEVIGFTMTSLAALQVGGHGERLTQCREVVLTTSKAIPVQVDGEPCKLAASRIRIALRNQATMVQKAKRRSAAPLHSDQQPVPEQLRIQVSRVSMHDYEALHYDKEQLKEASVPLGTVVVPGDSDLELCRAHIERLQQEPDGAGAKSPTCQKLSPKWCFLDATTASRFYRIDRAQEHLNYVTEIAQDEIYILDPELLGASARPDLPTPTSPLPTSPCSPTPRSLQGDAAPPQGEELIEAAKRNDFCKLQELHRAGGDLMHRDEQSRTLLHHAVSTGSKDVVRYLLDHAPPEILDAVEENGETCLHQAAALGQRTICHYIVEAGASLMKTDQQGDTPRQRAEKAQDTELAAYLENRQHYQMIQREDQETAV

Take `CC[C@H]1CN(C(C)c2cc3sc(C)nc3cc2F)[C@H](CC)CN1c1cc(=O)n(C)n2cc(CC#N)nc12` (single isomer, unassigned) [Compound A61b]: the IC50 came to 2000 nM in assay [1] and 5520 nM in assay [2].

On to `Cc1cnc2ccc(C(C)N3C[C@H](C)N(c4c(C#N)c(=O)n(C)n5cc(CC#N)nc45)C[C@H]3C)cc2n1` (stereo partly drawn) [Compound A23, 2-(cyanomethyl)-8-((2S,5R)-2,5-dimethyl-4-(1-(3-methylquinoxalin-6-yl)ethyl)piperazin-1-yl)-5-methyl-6-oxo-5,6-dihydroimidazo[1,2-b]pyridazine-7-carbonitrile], for which the IC50 in assay [1] came to 39 nM; in assay [2], 2280 nM.

For the compound `CC[C@H]1CN(C(C)c2ccc3ncsc3n2)[C@H](CC)CN1c1c(C#N)c(=O)n(C)n2cc(CC#N)nc12` (stereo partly drawn) [Compound A114, 2-(cyanomethyl)-8-((2S,5R)-2,5-diethyl-4-(1-(thiazolo[5,4-b]pyridin-5-yl)ethyl)piperazin-1-yl)-5-methyl-6-oxo-5,6-dihydroimidazo[1,2-b]pyridazine-7-carbonitrile], the IC50 amounted to 127 nM in assay [1] and 68 nM in assay [2].

Regarding `[2H]C([2H])([2H])c1nc2ccc(C(C)N3C[C@H](CC)N(c4cc(=O)n(C([2H])([2H])[2H])n5cc(CC#N)nc45)C[C@H]3CC)cc2s1` (single isomer, unassigned) [Compound A97a], the IC50 in assay [1] is 24 nM; in assay [2], 79 nM.

With `CC[C@H]1CN(C(C)c2ccc(C3CC3)cn2)[C@H](CC)CN1c1cc(=O)n(C)n2cc(CC#N)nc12` (stereo partly drawn) [Compound A52, 2-(8-((2S,5R)-4-(1-(5-cyclopropylpyridin-2-yl)ethyl)-2,5-diethylpiperazin-1-yl)-5-methyl-6-oxo-5,6-dihydroimidazo[1,2-b]pyridazin-2-yl)acetonitrile], the results for the IC50 in assay [1] and in assay [2] were 75 nM and 18 nM, respectively.

With `CC[C@H]1CN(C(C)c2ccc(C(F)(F)F)cc2F)[C@H](CC)CN1c1cc(=O)n(C)n2cc(CC#N)nc12` (single isomer, unassigned) [Compound A92a], the IC50 in assay [1] came out at 52 nM; in assay [2] it was 87 nM.
